Results reported in ChEMBL document CHEMBL3714727, “Novel dihydropyrimidinoisoquinolinones and pharmaceutical compositions thereof for the treatment of inflammatory disorders (gpr84 antagonists)” (2014).

biological target: T1, G-protein coupled receptor 84 (Homo sapiens, UniProt Q9NQS5); test: Antagonist activity against GPR84 (unknown origin) expressed in cell membranes assessed as inhibition of 3,3'-di-indolylmethane-induced [35S]GTPgammaS binding treated for 90 mins after 3,3'-di-indolylmethane stimulation in buffer containing 20 mM HEPES at pH 7.4 by top-count assay; assay type: functional
T1 sequence (Q9NQS5 whole entry): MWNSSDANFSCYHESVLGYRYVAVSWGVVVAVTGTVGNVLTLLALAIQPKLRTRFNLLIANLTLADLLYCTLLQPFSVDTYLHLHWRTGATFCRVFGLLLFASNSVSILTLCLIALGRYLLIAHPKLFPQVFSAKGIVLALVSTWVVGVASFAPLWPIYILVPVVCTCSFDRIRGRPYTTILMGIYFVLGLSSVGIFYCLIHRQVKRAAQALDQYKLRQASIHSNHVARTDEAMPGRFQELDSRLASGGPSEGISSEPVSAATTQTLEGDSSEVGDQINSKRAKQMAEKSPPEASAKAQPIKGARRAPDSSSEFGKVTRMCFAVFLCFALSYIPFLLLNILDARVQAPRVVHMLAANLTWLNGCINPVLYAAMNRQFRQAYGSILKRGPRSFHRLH

IC50	SMILES
≤ 100 nM	O=c1nc(OCC2COc3ncccc3O2)cc2n1CCc1cc(OCc3ncco3)ccc1-2 (single isomer, unassigned)
≤ 100 nM	O=c1nc(OCC2COc3ncccc3O2)cc2n1CCc1cc(-c3cn[nH]c3)ccc1-2 (centres undefined)
≤ 100 nM	CCCC(O)C#Cc1ccc2c(c1)CCn1c-2cc(OCC2COc3ncccc3O2)nc1=O (centres undefined)
> 1000 nM	CC(C)N(C)C(=O)COc1ccc2c(c1)CCn1c-2cc(OCC2CCCO2)nc1=O (centres undefined)
> 1000 nM	CC(C)(C)NCc1ccc2c(c1)CCn1c-2cc(OCC2COc3ncccc3O2)nc1=O (centres undefined)
≤ 100 nM	CC(C)(O)C#Cc1ccc2c(c1)CCn1c-2cc(OCC2COc3ncccc3O2)nc1=O (centres undefined)
> 1000 nM	NC(=O)COc1ccc2c(c1)CCn1c-2cc(OCC2CCCO2)nc1=O (centres undefined)
> 1000 nM	O=C(O)c1ccc(-c2ccc3c(c2)CCn2c-3cc(OCC3CCCO3)nc2=O)cc1 (centres undefined)
> 1000 nM	O=c1nc(OCC2CCCO2)cc2n1CCc1cc(OCc3cccc(-c4ccccc4)n3)ccc1-2 (centres undefined)
≤ 100 nM	O=c1nc(OCC2COc3ncccc3O2)cc2n1CCc1cc(OCc3ccccn3)ccc1-2 (centres undefined)
≤ 100 nM	N#CCOc1ccc2c(c1)CCn1c-2cc(OCC2COc3ncccc3O2)nc1=O (centres undefined)
≤ 500 nM	O=c1nc(OCC2CCCO2)cc2n1CCc1cc(OCc3cccc(-c4cncnc4)n3)ccc1-2 (centres undefined)
≤ 100 nM	O=c1nc(OCC2CCCO2)cc2n1CCc1cc(OCc3cccc([N+](=O)[O-])c3)ccc1-2 (centres undefined)
≤ 100 nM	CC1(COCc2ccc3c(c2)CCn2c-3cc(OCC3COc4ncccc4O3)nc2=O)COC1 (centres undefined)
≤ 100 nM	COc1ccc(COc2ccc3c(c2)CCn2c-3cc(OCC3CCCO3)nc2=O)cc1 (centres undefined)
≤ 100 nM	O=c1nc(OCC2COc3ncccc3O2)cc2n1CCc1cc(OCc3nnn[nH]3)ccc1-2 (centres undefined)
> 1000 nM	N#Cc1ccc(-c2ccc3c(c2)CCn2c-3cc(OCC3CCCO3)nc2=O)cc1 (centres undefined)
≤ 100 nM	O=c1nc(OCC2COc3ncccc3O2)cc2n1CCc1cc(COC3COC3)ccc1-2 (centres undefined)

IC50	SMILES
≤ 100 nM	O=c1nc(OCC2COc3ccccc3O2)cc2n1CCc1cc(OCc3nnn[nH]3)ccc1-2 (centres undefined)
≤ 100 nM	CCC(O)C#Cc1ccc2c(c1)CCn1c-2cc(OCC2COc3ncccc3O2)nc1=O (centres undefined)
> 1000 nM	CN(C)C(=O)COc1ccc2c(c1)CCn1c-2cc(OCC2CCCO2)nc1=O (centres undefined)
> 1000 nM	C=CCOc1ccc2c(c1)CCn1c-2cc(OCC2CCCO2)nc1=O (centres undefined)
≤ 100 nM	O=c1nc(OCC2CCCO2)cc2n1CCc1cc(OCC3COc4ccccc4O3)ccc1-2 (centres undefined)
≤ 100 nM	O=c1nc(OCC2COc3ncccc3O2)cc2n1CCc1cc(COCCN3CCOCC3)ccc1-2 (centres undefined)
> 1000 nM	CCN(CC)C(=O)COc1ccc2c(c1)CCn1c-2cc(OCC2CCCO2)nc1=O (centres undefined)
> 1000 nM	COc1ccc2c(c1)CCn1c-2cc(OCC2CCc3ccccc3O2)nc1=O (centres undefined)
> 1000 nM	Cn1cc(-c2ccc3c(c2)CCn2c-3cc(OCC3CCCO3)nc2=O)cn1 (centres undefined)
> 1000 nM	N#CCOc1ccc2c(c1)CCn1c-2cc(OCC2CCCO2)nc1=O (centres undefined)
> 1000 nM	O=c1nc(OCC2CCCO2)cc2n1CCc1cc(O)ccc1-2 (centres undefined)
≤ 100 nM	O=c1nc(OCC2COc3ncccc3O2)cc2n1CCc1cc(C#CCNCc3ccccc3)ccc1-2 (centres undefined)
≤ 100 nM	O=c1nc(OCC2CCCO2)cc2n1CCc1cc(OCCOc3ccccc3)ccc1-2 (centres undefined)
≤ 100 nM	O=c1nc(OCC2COc3ncccc3O2)cc2n1CCc1cc(CN3CCCCC3)ccc1-2 (centres undefined)
≤ 100 nM	CC(O)C#Cc1ccc2c(c1)CCn1c-2cc(OCC2COc3ncccc3O2)nc1=O (centres undefined)
≤ 100 nM	CC(C)C(O)C#Cc1ccc2c(c1)CCn1c-2cc(OCC2COc3ncccc3O2)nc1=O (centres undefined)
> 1000 nM	O=C(NCC1COC1)c1ccc2c(c1)CCn1c-2cc(OCC2COc3ncccc3O2)nc1=O (centres undefined)

biological target: T1, G-protein coupled receptor 84; test: Antagonist activity against GPR84 (unknown origin) expressed in cell membranes assessed as inhibition of 3,3'-di-indolylmethane-induced [35S]GTPgammaS binding treated for 90 mins after 3,3'-di-indolylmethane stimulation in buffer containing 20 mM Tris at pH 7.5 by top-count assay; assay type: functional

IC50	SMILES
> 1000 nM	CN(C)C(=O)c1cccc(-c2ccc3c(c2)CCn2c-3cc(OCC3CCCO3)nc2=O)c1 (centres undefined)
> 1000 nM	CC(C)(C)OC(=O)n1cccc1-c1ccc2c(c1)CCn1c-2cc(OCC2CCCO2)nc1=O (centres undefined)
> 1000 nM	Cc1cccc(C)c1-c1ccc2c(c1)CCn1c-2cc(OCC2CCCO2)nc1=O (centres undefined)
> 1000 nM	O=c1nc(OCC2CCCO2)cc2n1CCc1cc(-c3cncnc3)ccc1-2 (centres undefined)
